According to US5245077A, “L-buthionine-S-sulfoximine and methods of making” (Cornell Research Foundation Inc., priority 1992, dated 1993):
Entries after “also recorded” stand apart in the source; their conditions may differ. Read-outs that look alike come from different tables or passages of the source.

Tests used:
[1] = system: L-glutamylcysteine uptake; conditions: kidney; cited from earlier work
[2] = target: T1, gamma-glutamylcysteine synthetase (Rattus norvegicus, UniProt P19468); assay: Inhibition of gamma-glutamylcysteine synthetase (coupled PK/LDH assay, NADH absorbance at 340 mμ); assay type: biochemical; conditions: for Ki / binding mode: versus glutamate; for Ki: Lineweaver-Burk plot
T1 sequence (P19468 1-637): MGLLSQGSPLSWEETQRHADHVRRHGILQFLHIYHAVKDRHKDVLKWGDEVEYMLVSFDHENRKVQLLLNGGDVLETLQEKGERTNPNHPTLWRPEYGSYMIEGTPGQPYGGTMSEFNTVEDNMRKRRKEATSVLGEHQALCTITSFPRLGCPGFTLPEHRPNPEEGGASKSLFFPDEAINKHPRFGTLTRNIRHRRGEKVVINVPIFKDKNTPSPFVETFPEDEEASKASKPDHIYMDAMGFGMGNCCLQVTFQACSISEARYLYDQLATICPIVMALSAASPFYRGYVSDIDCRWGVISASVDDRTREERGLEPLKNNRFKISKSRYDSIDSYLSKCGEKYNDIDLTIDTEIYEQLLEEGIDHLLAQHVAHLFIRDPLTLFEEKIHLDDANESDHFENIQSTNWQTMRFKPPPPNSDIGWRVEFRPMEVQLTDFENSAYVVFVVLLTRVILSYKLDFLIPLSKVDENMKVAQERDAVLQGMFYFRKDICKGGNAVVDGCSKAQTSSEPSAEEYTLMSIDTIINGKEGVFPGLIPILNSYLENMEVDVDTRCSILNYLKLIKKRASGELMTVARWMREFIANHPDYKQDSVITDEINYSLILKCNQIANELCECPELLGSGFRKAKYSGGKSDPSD
T1 sequence (P48508 1-274 partner): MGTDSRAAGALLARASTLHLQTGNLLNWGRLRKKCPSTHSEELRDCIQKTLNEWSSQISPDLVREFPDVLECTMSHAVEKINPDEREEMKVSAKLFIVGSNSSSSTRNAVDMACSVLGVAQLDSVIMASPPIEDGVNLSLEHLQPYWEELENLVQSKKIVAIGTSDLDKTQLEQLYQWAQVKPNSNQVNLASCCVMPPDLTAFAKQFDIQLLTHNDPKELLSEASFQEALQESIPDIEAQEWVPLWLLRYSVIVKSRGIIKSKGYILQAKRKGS
Description: L-buthionine-S-sulfoximine, L-buthionine-R-sulfoximine and D-buthionine-SR-sulfoximine were assayed for ability to inhibit gamma-glutamylcysteine synthetase.
The assay procedure used is similar to that described in Griffith, O. W., J. Biol. Chem. 257, 13704-13712 (1982).
The assay is based on the following reactions wherein GS is used to denote gamma-glutamylcysteine synthetase, PK is used to denote pyruvate kinase, LDH is used to denote lactate dehydrogenase, NADH is used to denote reduced beta-nicotinamide adenine dinucleotide, NAD^+ is used to denote oxidized beta-nictoninamide adenine dinucleotide, ATP is used to denote adenosine triphosphate, ADP is used to denote adenosine diphosphate, and Pi is used to denote inorganic phosphate.
The assay is based on the fact that the velocity of the reaction to produce gamma-glutamylaminobutyrate is reduced to the extent that GS is inhibited. […] Reactions (2) and (3) are a detection system for ADP wherein ADP, as it is produced, reacts with phosphoenolpyruvate to produce pyruate, which reacts with NADH to produce NAD^+. […] Thus, progress of the GS reaction results in a decrease in the absorbence of the solution at 340 mμ and, if GS is inhibited, the decrease in absorbence at 340 mμ occurs at a slower rate. Such studies are carried out at several concentrations of inhibitor.
Each test for inhibition was carried out in a cuvette containing in a final volume of 1 ml the following: 150 mM Tris-HCl buffer (pH 8.2), 75 mM KCl, 10 mM ATP, 5 mM phosphoenolpyruvate, 25 mM MgCl2, 1 to 5 mM L-glutamate, 10 mM α-amino-L-butyrate, 0.3 mM NADH, 0.2 mM EDTA, 10 International Units of PK, 10 International Units of LDH and 0.03 International Units of GS. […] Four sets of runs were made with 1 mM glutamate; 4 sets of runs were made with 1.7 mM glutamate; 4 sets of runs was made with 2.5 mM glutamate and 4 sets of runs were made with 5 mM glutamate. At each glutamate concentration, one set of runs were made with no inhibitor. For studies with L-buthionine-R-sulfoximine the other 3 sets of runs contained 0.05, 0.1, 0r 0.2 mM inhibitor. For studies with D-buthionine-SR-sulfoximine, the other 3 sets of runs contained 2, 5 or 10 mM inhibitor.
For each test run the temperature was kept at 37° C. and GS was added last to start the reaction. The reaction velocity was followed from the decrease in absorbence at 340 mμ (a decrease of 0.62 in optical density indicates 0.1 μmol of product was formed).
A Lineweaver-Burk plot was then prepared.
Complete inhibition was obtained in less than 5 min with either concentration tested.

[3] = system: tissue glutathione levels; assay: Glutathione depletion in mice (tissue glutathione levels); assay type: in vivo; conditions: for glutathione level of kidney / glutathione level of liver / glutathione level of pancreas: 2 hours after injection; for glutathione level of kidney: L-SR and D-SR 0.4 mmole/kg, L-S and L-R 0.2 mmole/kg; for glutathione level of liver / glutathione level of pancreas: SR 0.4 mmole/kg, S 0.2 mmole/kg; for depletion of glutathione in liver (in words) / depletion of glutathione in pancreas (in words): L-R 0.2 mmole/kg, D-SR 0.4 mmole/kg
Description: Tissue glutathione levels were determined as described in Griffith, O. W., Anal. Biochem. 106, 207-212, (1980).
Thirty two mice were given physiological saline, 4 mice were given 0.4 mmole/kg of L-buthionine-SR-sulfoximine, 4 mice were given 0.2 mmole/kg of L-buthionine-S-sulfoximine, 4 mice were given 0.2 mmoles/kg of L-buthionine-R-sulfoximine and 4 mice were given 0.4 mmole/kg or D-buthionine-SR-sulfoximine. All injections were given intraperitoneally. Two hours after injection, the mice were killed, and the glutathione levels in the brain, liver, pancreas, and kidney were determined.

[4] = system: Glutathione synthesis in tissues and cells; conditions: in vitro or in vivo; cited from earlier work
Tumors in mice = conditions: with ionizing radiation and various chemotherapeutic agents; cited from earlier work
cystine transport = conditions: cited from earlier work
[5] = target: T1, gamma-glutamylcysteine synthetase; conditions: cited from earlier work
[6] = Transport of 35S-labelled isomers into tissues (tissue content); assay type: in vivo, mice; conditions: 2 mmole/kg i.p., 2 hours
Description: The transport of L-buthionine-S-sulfoximine and L-buthionine-R-sulfoximine into tissues was examined using preparations of each isomer radiolabeled with ^35 S.
L-[^35 S]-Buthionine-SR-sulfoximine was prepared from L-[^35 S]methionine as described previously (Griffith, O. W., J. Biol. Chem. 257, 13704-13712 (1982)). The preparation was separated into L-[^35 S]-buthionine-S-sulfoximine and L-[^35 S]-buthionine-R-sulfoximine by chromatography using Cu^++ D-proline buffer as described in Example III.
Twelve mice were injected intraperitoneally with L-[^35 S]-buthionine-S-sulfoximine and 12 mice were injected intraperitoneally with L-buthionine-R-sulfoximine. For all mice the dose was 2 mmole/kg. After 2 hours the mice were sacrificed, and the radioactivity contained in the various tissues was determined by liquid scintillation counting. From that determination and from the known specific activity of the compounds injected, the tissue content of either L-buthionine-S-sulfoximine or L-buthionine-R-sulfoximine was calculated. The results in μmole/gm tissue were as follows (tissue, content of L-buthionine-S-sulfoximine, content of L-buthionine-R-sulfoximine): brain, 0.11, 0.17; lung, 0.53, 0.55; heart, 0.33, 0.49; liver, 0.11, 0.16; spleen 0.51, 0.59; small intestine, 0.34, 0.39; large intestine, 0.25, 0.20; testes, 0.45, 0.50; skeletal muscle, 0.18, 0.24.

Trypanosoma b. brucei = conditions: mice infected with Trypanosoma b. brucei; cited from earlier work

## CCCCS(=O)(=O)CC[C@H](N)C(=O)O [L-buthionine sulfone]
[1]
  L-glutamylcysteine uptake from the tubule (in words): inhibition of L-glutamylcysteine uptake from the tubule

## N[C@@H](CCC(=O)O)C(=O)O [glutamate, L-glutamate]
[2]; read-out: Km for glutamate, without inhibitor, 37° C., pH 8.2
  Km: 1700 ± 300 µM

## CCCCS(=N)(=O)CC[C@H](N)C(=O)O (stereo partly drawn) [L-buthionine-SR-sulfoximine, L-(S-n-butyl)homocysteine-SR-sulfoximine]
[3]; kidney, i.p.
  glutathione level of kidney: 27 % of control
[3]; i.p.
  glutathione level of liver: 52 % of control
  glutathione level of pancreas: about 42 % of control
[4]
  glutathione synthesis in tissues and cells (in words): Glutathione synthesis is decreased
Tumors in mice
  effect on tumors in mice (in words): become glutathione depleted and more susceptible to the cytotoxic effects of ionizing radiation and various chemotherapeutic agents
Cystine transport
  effect on cystine transport (in words): deleterious effect on cystine transport
[5]
  inhibition of gamma-glutamylcysteine synthetase (in words): potent and specific inhibitor of gamma-glutamylcysteine synthetase

## CCCCS(=N)(=O)CC[C@@H](N)C(=O)O (stereo partly drawn) [D-buthionine-SR-sulfoximine, reference compound]
[2]
  inhibition of gamma-glutamylcysteine synthetase (in words): weak and reversible inhibitors
  reversibility of inhibition: reversible inhibitor
  binding mode: competitive with glutamate
[2]; 37° C., pH 8.2
  Ki: 5.2 mM
[3]; kidney, i.p.
  glutathione level of kidney: 70 % of control
[3]; i.p., 2 hours
  depletion of glutathione in liver (in words): did not cause significant depletion of glutathione
  depletion of glutathione in pancreas (in words): did not cause significant depletion of glutathione

## CCCC[S@](=N)(=O)CC[C@H](N)C(=O)O [L-buthionine-S-sulfoximine]
[2]
  inhibition of gamma-glutamylcysteine synthetase (in words): strongly and irreversibly inhibits
  reversibility of inhibition: irreversible inhibition
[2]; 0.01 or 0.1 mM inhibitor, either concentration
  time to complete inhibition: less than 5 min
[2]; buffers containing ATP and MgCl2
  reversal of inhibition by dilution or gel permeation chromatography: could not be reversed
[3]; compared with L-buthionine-SR-sulfoximine at twice the dose
  depletion of tissue glutathione levels in several tissues (in words): as effectively as L-buthionine-SR-sulfoximine given at twice the dose
[3]; kidney, i.p.
  glutathione level of kidney: 27 % of control
[3]; i.p.
  glutathione level of liver: 41 % of control
  glutathione level of pancreas: about 42 % of control
[6]
  tissue content, brain: 0.11 μmole/gm tissue
  tissue content, heart: 0.33 μmole/gm tissue
  tissue content, large intestine: 0.25 μmole/gm tissue
  tissue content, liver: 0.11 μmole/gm tissue
  tissue content, lung: 0.53 μmole/gm tissue
  tissue content, skeletal muscle: 0.18 μmole/gm tissue
  tissue content, small intestine: 0.34 μmole/gm tissue
  tissue content, spleen: 0.51 μmole/gm tissue
  tissue content, testes: 0.45 μmole/gm tissue

## CCCC[S@@](=N)(=O)CC[C@H](N)C(=O)O [L-buthionine-R-sulfoximine]
[2]
  inhibition of gamma-glutamylcysteine synthetase (in words): weak and reversible inhibitors
  reversibility of inhibition: reversible inhibitor
  binding mode: competitive with glutamate
[2]; 37° C., pH 8.2
  Ki: 0.11 mM
[3]; brain, i.p., 2 hours
  depletion of glutathione in brain (in words): no significant effect on glutathione levels
[3]; kidney
  effect on glutathione level in kidney (in words): only a small effect on glutathione level in kidney
[3]; kidney, i.p.
  glutathione level of kidney: 87 % of control
[3]; i.p., 2 hours
  depletion of glutathione in liver (in words): no significant effect on glutathione levels; also recorded: did not cause significant depletion of glutathione
  depletion of glutathione in pancreas (in words): no significant effect on glutathione levels; also recorded: did not cause significant depletion of glutathione
[6]
  tissue content, brain: 0.17 μmole/gm tissue
  tissue content, heart: 0.49 μmole/gm tissue
  tissue content, large intestine: 0.20 μmole/gm tissue
  tissue content, liver: 0.16 μmole/gm tissue
  tissue content, lung: 0.55 μmole/gm tissue
  tissue content, skeletal muscle: 0.24 μmole/gm tissue
  tissue content, small intestine: 0.39 μmole/gm tissue
  tissue content, spleen: 0.59 μmole/gm tissue
  tissue content, testes: 0.50 μmole/gm tissue
[6]; e.g., heart and liver
  uptake or retention by some tissues (in words): more effectively than L-buthionine-S-sulfoximine

## C[S@](=N)(=O)CC[C@H](N)C(=O)O [L-methionine-S-sulfoximine]
[5]
  inhibition of gamma-glutamylcysteine synthetase (in words): the only diastereomer of DL-methionine-SR-sulfoximine that inhibits gamma-glutamylcysteine synthetase

## CCCCS(=N)(=O)CCC(N)C(=O)O (racemic) [DL-buthionine-SR-sulfoximine]
Trypanosoma b. brucei
  survival of infected mice (in words): extended survival and in some cases to be cured
